# Tests used:
# [1] = test system: rabbit ventricular myocytes; assay: Intracellular calcium [Ca^++]i in ventricular myocytes during paced metabolic ischemia (PMI), Fluo-3 flow cytometry; type: cell-based
# From the text: Consequently, it prevents intracellular sodium overload and subsequent reverse mode operation of the sodium-calcium exchanger. The effect of 2-O, 3-O desulfated heparin on accumulation of intracellular Ca^++ during ischemia was studied in an adult rabbit ventricular myocyte model previously reported (Boston D R, et al. J Pharmacol Exp Ther 285:716-723, 1998; Li F, et al. J Mol Cell Cardiol 33:2145-2155, 2001). Isolated cardiomyocytes have been validated as reliable models of ischemia (Diaz, R J, Wilson G J. Cardiovasc Res 70:286-296, 2006).
# To produce the model, hearts are removed from albino rabbits (2-3 kg) anesthetized with sodium pentobarbital (65 mg/kg IV). The heart was immediately attached to an aorta cannula. Continuous perfusion of the coronary arteries at 37° C. by a pump (Masterflex, Cole-Parmer Instrument Co., Chicago, Ill.) was initiated at a perfusion pressure of 60 mm Hg. The heart was first perfused with nominally Ca^++-free modified Krebs-Ringer bicarbonate buffered solution (MKRBB, pH 7.40, containing in mmol/L: NaCl 126, KCl 4.4, […], MgCl2 1.0, HEPES 24, probenecid 0.5 and glucose 5) for 10 min, immediately followed by 15-25 min of recirculating perfusion with the same solutions containing 0.3 mg/ml collagenase (Type 2, Worthington Biochemical, Freehold, N.J.), 0.4 mg/mL hyaluronidase (Type-S, Sigma-Aldrich, St. Louis, Mo.) and 50 μmol/L CaCl2. The heart was then detached from the cannula, and the left ventricle was minced and transferred to a 50 mL conical tube with the same solution containing 0.24 mg/mL collagenase, 0.02 mg/mL trypsin and 50 μmol/L Ca^++ for a second digestion. The minced tissue was continuously agitated by gassing the solution with 5% CO2 and 95% O2 to help release isolated myocytes. The resulting supernatant was transferred to another conical tube with the same volume of the same solution containing 0.03 mg/mL of trypsin inhibitor (Sigma-Aldrich). The cell suspension was centrifuged at 5×g for 5 minutes. The supernatant was discarded and cells were resuspended in solution with a higher Ca^++ concentration (200 μmol/L) and incubated in a CO2 incubator (5% CO2, 28° C.) to settle down cells by gravity for 10 min. The same procedure was repeated twice to bring up the Ca^++ concentration slowly (500, then 1000 μmol/L). Calcium step-up solutions were made from MKRBB with 2% albumin, 50 μmol/L CaCl2 mixed with the appropriate amount of minimum essential medium (MEM, Gibco Laboratories, Grand Island, N.Y.). At the end of isolation, cells were filtered with a […] to avoid cell clumping during flow cytometry studies. The yield of rod-shaped viable myocytes averaged 50%. Cells were used for experiments within 4 hours after dissociation.
# In these studies, intracellular calcium concentration [Ca^++]i was measured by flow cytometry. Measurement of isolated mouse and rabbit ventricular myocyte [Ca^2+]i and [Na^+]i by flow cytometry has been described (Zhang et al., J. Cardiovasc. Pharmacol. 51: 443-449 (2008); Li et al., J. Mol. Cell. Cardiol. 33: 2145-2155 (2001)). [Ca^++]i was measured with the Ca^++ sensitive fluorescent probe, Fluo 3-AM (Molecular Probes, Eugene, Oreg.), using a FACScan (Becton-Dickinson, MA). The cells were exposed to 4 μmol/L Fluo-3 AM for 30 min at 37° C. The cells were then separated into aliquots. After 40 min of wash, the cells were exposed to paced metabolic ischemia (MI) for 45 min at 37° C. Metabolic ischemia was accomplished by incubating cells in a glucose-free MKRBB solution (pH 7.40) containing 2 mmol/L sodium cyanide (NaCN) to impair mitochondrial and glycolytic generation of ATP. To reproduce the situation in the beating ischemic heart, during the period of metabolic ischemia, myocytes were placed in a 5-well chamber with equal volumes of myocyte suspensions from the same heart dissociation placed in each well. The chamber was water bathed to maintain temperature at 37° C. and bubbled with 5% CO2 in air to keep myocytes in suspension. […]
# [2] = test system: platelets with HIT antibody; assay: Serotonin release assay (SRA) with HIT-positive serum; details: ODSH added with heparin to the HIT antibody
# Method: Two techniques were employed to measure platelet activation in response to heparin or 2-O desulfated heparin in the presence of HIT-reactive serum.
# The first technique was the serotonin release assay (SRA), considered the gold standard laboratory test for HIT, and performed as described by Sheridan (Sheridan D, et al. Blood 67:27-30, 1986). Washed platelets were loaded with ^14C serotonin (^14C-hydroxy-tryptamine-creatine sulfate, Amersham), and then incubated with various concentrations of test heparin or heparin analog in the presence of serum from known HIT-positive patients as a source of antibody. Activation was assessed as ^14C serotonin release from platelets during activation, with ^14C serotonin quantitated using a liquid scintillation counter. […] Activated platelets are defined as percent isotope release of ≧20%.
# The initial 3 ml (milliliters) of whole blood in the first syringe was discarded. The anticoagulated blood was centrifuged (80×g (gravity), 15 min, room temperature) to obtain platelet rich plasma (PRP). […] EDTA was added to stop the reaction, and the mixture was centrifuged to pellet the platelets. ^14C-serotonin released into the supernatant was measured on a scintillation counter. Maximal release was measured following platelet lysis with 10% Triton X-100. […]
substance,measurement,setting,value
"2-O, 3-O desulfated heparin [ODSH]",effect on myocyte [Ca^2+]i during simulated ischemia,"[1]; 45 min P-MI, ODSH 1, 10, 100 μg/mL, FIG. 3",dose-dependent reduction of [Ca^2+]I
same,further reduction in [Ca^2+]i in the presence of KBR,"[1]; ODSH 100 μg/mL with KBR 10 μmol/L, 45 min simulated ischemia, FIG. 4",no significant further reduction in [Ca^2+]i
same,additional effect on Ca^2+ loading during P-MI in the presence of ranolazine,"[1]; ODSH 100 μg/ml with ranolazine 10 μM, FIG. 8",no additional effect on Ca^2+ loading
same,[Ca^++]i,"[1]; PMI 45 min + ODSH 1 μg/mL, n = 7, PMI alone 1133.6 ± 78.4, Hepes 241.9 ± 23.0",1013.8 ± 69.2 nM
same,[Ca^++]i,"[1]; PMI 45 min + ODSH 10 μg/mL, n = 7, PMI alone 1133.6 ± 78.4",739.0 ± 63.8 nM
same,[Ca^++]i,"[1]; PMI 45 min + ODSH 100 μg/mL, n = 7, PMI alone 1133.6 ± 78.4",684.3 ± 66.9 nM
same,[Ca^++]i,"[1]; Table 6: PMI + ODSH 100 μg/mL, n = 7, PMI alone 985.5 ± 42.7, Hepes 269.6 ± 8.3",688.6 ± 33.4 nM
same,effect on [Ca^2+]i during P-MI,"[1]; each alone: ODSH 100 μg/ml, ranolazine 10 μM, FIG. 8, n = 7",reduced [Ca^2+]i to a similar degree
same,effect on heparin-induced platelet activation,[2],prevented heparin from causing platelet activation

# From patent US20090238852A1, “METHODS FOR CONTROLLING INTRACELLULAR CALCIUM LEVELS ASSOCIATED WITH AN ISCHEMIC EVENT” (University of Utah Research Foundation, priority 2008, published 2009)
